Data taken from US8865672B2, “Prevention of tissue ischemia and related methods” (The United States of America, as represented by the …, priority 2006, dated 2014).
Ends that are not written are not given here. * marks the point of attachment. Biotin = O=C1N[C@H]2[C@H](CS[C@H]2CCCCC(=O)*)N1

Columns and labels:
[1] = test system: VSMC and endothelial cells; experiment: NO-stimulated adhesion of VSMC and endothelial cells to type I collagen (Example 9); format: cell-based; conditions: 10 μM DEA/NO
Protocol: Vascular cells (VSMC or endothelial) were plated at 10,000 cells/well onto 96-well plates (Maxisorb, Nunc) precoated with type I collagen (3 μg/ml). […] Plates were then washed with PBS, fixed with glutaraldehyde, stained with crystal violet, and washed. Absorbed stain was solubilized with acetic acid from fixed cells and the resulting color signal determined on a MR580Microelisa Auto Reader, (Dynatech, Alexandria, Va.) at 450 nm wavelength.

NO/cGMP signaling = experiment: cGMP signaling (NO-stimulated cGMP, immunoassay); format: cell-based, human; conditions: concentration for 50% inhibition of effect
Protocol: Vascular cells (endothelial) or HT-1080 cells (10^4 cells/well) grown overnight in 12-well culture in SM-GM containing 2% FCS or RPMI+10% FCS respectively and then weaned off serum over 48 h before treatment with NO donors and other agents in serum/additive free medium+0.1% BSA. Intracellular cGMP levels were determined using an enzyme immunoassay (Amersham, GE Health Care, UK). In other experiments fresh washed human platelets were incubated in Tyrode's buffer and the indicated treatment agents±NO and cGMP determined.

[2] = test system: vascular cell outgrowth from muscle explants; experiment: Explant invasion assay in 3D collagen; format: cell-based, mouse; conditions: wild type and TSP1 null explants, NO 10 μM, peptides 10 μM, NoC1 0.1 μg/ml, day 7
Protocol: Muscle biopsies from the pectoralis major muscle of 8 to 12 week old wild type or transgenic mice were harvested and explanted into 100 μl of type I collagen gel in 96-well tissue culture plates as described (Isenberg et al., Matrix Biol 24:110-123, 2005). Following gelation, the embedded explants were overlayed with 75 μl of EGM+2% FCS in the presence or absence of a dose range of DETA/NO (0.01-1000 μM) and other indicated treatments and then incubated at 37° C. and 5% CO2 for 7 days, at which time maximum vascular cell migration through the matrix was measured.

HUVEC = experiment: NO-stimulated HUVEC adhesion on type I collagen; format: cell-based, human; conditions: DEA/NO 10 μM
Protocol: Cell adhesion was carried out in 96-well culture plates. After pre-coating wells with type I collagen (3 μg/ml in DPBS) harvested cells were plated at a density of 1×10^4 cells/well in medium plus 0.1% BSA and treatment agents and incubated in 5% CO2 for 1 h. Wells were washed with PBS and cells fixed with 1% glutaraldehyde for 10 min., washed and stained with 1% crystal violet for 20 min. Excess stain was rinsed away, adherent cells treated with 10% acetic acid, and plates read at 570 nm.

human platelets [3] = experiment: cGMP in human platelets; format: cell-based; conditions: washed human platelets in Tyrode's buffer
Protocol: Fresh human platelets at 2×10^5 platelets/μl in Tyrode's buffer or PRP were pre-incubated with the indicated agents for 15 minutes and then challenged with DEA/NO for the indicated time interval at room temperature and total cGMP determined via immunoassay (Amersham, GE Healthcare, Buckinghamshire, UK). Murine WT and TSP1-null platelets were treated with DEA/NO and cGMP flux measured.

[4] = test system: murine ASMC (WT, CD36 null, CD47 null); experiment: Intracellular cGMP in murine ASMC; format: cell-based, mouse
Protocol: Murine ASMC were obtained from aortic segments harvested sterilely from C57B1/6 CD47 null or CD36 null mice as described (Ray et al., Methods Cell Sci 23:185-188, 2001) and cultured in SM-GM (Cambrex)+20% FCS. In the case of CD36 null cells, culture flasks were pre-coated with 1% gelatin prior to cell plating. Wild type C57B1/6 ASMC cultures were prepared as previously described (Isenberg et al., Matrix Biol 24:110-123, 2005). Cell culture purity was determined by immunohistochemistry staining for α-smooth muscle actin. Cells were used within passage 1 to 4 to minimize overgrowth of other cell types.
HUVEC (10^4 cells/well) grown overnight in 96-well culture plates containing full growth medium with 2% FCS and weaned in growth medium without additives and 1% FCS over 24 hrs before treatment with NO donors and other agents in SM-GM without additives+0.1% BSA. Intracellular cGMP levels were determined according to the manufacturer's instructions using an enzyme immunoassay kit (Amersham Biosciences). In other experiments ASMC from wild type and CD36 or CD47 null mice were plated onto 96-well culture plates and incubated overnight in full growth medium. They were then weaned off serum as described to SM-GM+0.1% BSA and treated with NO donor and other agents as indicated. Intracellular cyclic nucleotides were determined via immunoassay.

human platelets [5] = experiment: Thrombin-induced human platelet aggregation; format: cell-based; conditions: high shear
Protocol: Platelets were pelleted from platelet-rich plasma (PRP) by centrifugation for 10 minutes at 200 g. They were then washed with acid citrate dextrose (ACD) (85 mM citric acid, 65 mM sodium citrate, 100 mM glucose, pH 5.1) at a ratio of 1:7 at room temperature. After pelleting the platelets again and removing the supernatant, the platelets were resuspended in 5 mL of Tyrode's buffer (137 mM NaCl, 3 mM KCl, 12 mM NaHCO3, 0.3 mM NaHPO4, 2 mM CaCl2, 1 mM MgCl2, 5.5 mM glucose, 5 mM HEPES, 3.5 mg/mL BSA, pH 7.4). The final platelet number was adjusted to […] in 500 μl/cuvette of Tyrode's buffer.
Aggregation of human platelets under high shear conditions was assessed using a standard optical aggregometer (Lumi-Dual Aggregometer, Chrono-Log Corp., Havertown, Pa.) at 37° C. and 1200 rpm in a volume of 500 μl buffer with a final platelet concentration of 2×10^5 platelets/μl over a 5 minute interval. Pre-incubation with TSP1 and TSP1-based agents was for 15 minutes prior to addition of thrombin and/or the rapidly releasing nitric oxide donor DEA/NO. In some experiments platelets were pre-incubated with the Rap1 inhibitor GGTI-298 (10 μM) (Calbiochem, La Jolla, Calif.) for 30 minutes prior to initiating aggregation. In other high shear aggregation experiments murine platelets were prepared as above with the following modifications. Mouse blood was collected by retro-orbital bleeding of anesthetized mice using heparinized tubes. PRP was prepared and then diluted with 4 vol. of Tyrodes containing 5 mM EDTA to prevent activation. After collection by centrifugation, platelets were resuspended in 2× initial PRP volume and held at room temperature for less than 1 hour before use. Aggregation conditions consisted of 250 μL of washed platelets stirred at 1200 rpm in a Chronolog Optical aggregometer at 37° C. DEA/NO (10 μM) was added 30 seconds prior to activation and 8-BrcGMP added 15 min prior to activation with 0.2 U/ml human thrombin. Data was collected using Chronolog “Aggrolink” software. Platelet aggregation under static conditions was assessed using a spectrophotometer (Beckman DU 640, Beckman Coulter, Fullerton, Calif.) and determined as a change in absorbance at 400 nm with continuous observation over a five minute interval. The cuvette was inverted once every 60 seconds. Pre-incubation with TSP1 and TSP1-based agents was for 15 minutes prior to addition of thrombin and/or DEA/NO to minimize the formation of thrombin-serpinthrombospondin complexes (Chang & Detwiler, Arch Biochem Biophys. 299:100-104, 1992), which interfere with thrombin-platelet interactions.
Fresh human platelets were suspended in Tyrode's buffer and under low shear conditions thrombin-stimulated aggregation measured as described. Platelets were then treated with peptide C6d (1 μM)±NO (10 μM DEA/NO) and thrombin and aggregation measure.

[6] = test system: random myocutaneous flaps in mice; experiment: Random myocutaneous (McFarlane) flap model; format: in vivo, mouse; conditions: aged TSP1-null animals, agent in drinking water
Protocol: WT and TSP1 null mice were matched for sex and age. Under isoflurane inhalation anesthesia 1×2 cm random myocutaneous flaps were raised. Where indicated, animals received either L-NAME (0.5 mg/ml) or ISDN (1 mg/ml) ad libitum in drinking water during the post-operative period. On postoperative day 7, the animals were again anesthetized with inhalation isoflurane and flaps evaluated. Viable and necrotic areas of the flaps were determined by color, refill, eschar, and the pin-prick test. Outlines of viable and nonviable areas were traced using transparent film and the area of flap necrosis versus total flap area determined as described (Yu et al., Proc Natl Acad Sci USA 102:10999-11004, 2005).
Wild type, TSP1 null, CD36 null and CD47 null mice were matched for sex and age underwent random dorsal myocutaneous flaps as described (Isenberg et al., Blood 2006; Example 2) and tissue harvested on postoperative day 7.
The necrotic area of the flap was determined as described (Isenberg et al., Blood. Nov. 2, 2006) Animals were then euthanized and flaps excised, fixed in 10% paraformaldehyde and processed for histology.
Random myocutaneous flap wound beds and/or ischemic hindlimb vastus medialis muscle was assessed at indicated time points (72 hours or 7 days post-operatively) for visible alterations in vascularity under 5× magnification. An arbitrary though strictly applied definition of countable vessels was employed to highlight both individual vessels and vascular ramifications. In any given vascular plexus visible by 5× magnification a vessel was defined as that segment traversing two branches. Visible vessels without ramifications and branches were counted once. Treatment status and genetic background of tissue images was not known by the reviewer.
Animals underwent creation of a random myocutaneous (McFarlane) flap as previously described (Isenberg et al., Blood 109:1945-1952, 2007). Some animals received either ISDN (1 mg/mL) or L-NAME (0.5 mg/ml) ad libitum in the drinking water during the post-operative interval.
Flap soft tissue units and underling wound beds were injected with control vehicle (normal saline), a CD47 morpholino or a control morpholino (10 μM) in sterile saline. Flap survival was determined as described.

[7] = test system: full thickness skin grafts in mice; experiment: Full thickness skin graft (FTSG) model; format: in vivo, mouse; conditions: TSP1-null grafts, agent in drinking water post-operatively
Protocol: Wild type, TSP1 null, CD47 null and CD36 null mice were matched for sex and age. Anesthesia was induced by and maintained with inhalation isoflurane. Body temperature was maintained at 37° C. with a heating pad during the procedure. The dorsal surface was clipped of hair and depilated with Nair®. The skin was then cleansed with surgical soap and alcohol and the animals draped. Using sterile technique, a 1×1 cm FTSG incorporating the panniculus carnosus, subcutaneous tissues and skin were raised. Graft dimensions were marked on the animal skin surface with the aid of a template to insure consistency in dimension. Grafts were in the midline of the animal and secured with four interrupted 5-0 nylon sutures. Sutures were so placed as to include the fascia of the dorsal musculature to provide increased immobilization of grafts to the underlying wound bed Animals were awakened and returned to individual cages and allowed ad libitum access to food and water. Trauma to FTSG was not encountered during the post-operative interval since grafts were located in the dorsal midline over the mid thoracic area and each animal was housed individually following surgery. On postoperative day three or seven, the animals were again anesthetized with inhalation isoflurane and skin graft survival evaluated.
The groups of animals utilized and the treatments received as indicated either at the time of skin grafting and/or during the post-operative interval are summarized in FIG. 21. Animals treated with ISDN (1 mg/ml) or L-NAME (0.5 mg/ml) had ad libitum access to drinking water containing the given concentrations of agents during the post-operative interval. Animals treated with a CD47 monoclonal antibody (Ab clone 301) or an isotype matched control antibody (Ig2α) underwent injection of 40 μg delivered as 10 μl of a 4 mg/ml stock in 100 μl of PBS with equal volumes injected between the wound bed and graft prior to suturing the graft in place. Animals treated with a CD47 morpholino oligonucleotide underwent injection of the FTSG and wound bed with 10 μmol/L in 250 μl of PBS with 125 μl volumes injected in the graft and wound bed, respectively prior to suturing the graft in place.
The necrotic areas of the FTSG were determined by color, refill, eschar, and the pin-prick test. The outlines of viable and nonviable areas were traced using transparent film, and the area of necrosis cut from the template and the area of skin graft necrosis versus total skin graft area determined by comparison of the original template weight to the weight of the cut template utilizing the method described by Ueda (Ueda et al., J Surg Res 80(2):200-204, 1998). Skin graft survival area was presented as the ration of graft survival on post-operative day three or seven divided by the original graft area multiplied by 100%. Additionally, digital images were then acquired using an Olympus C5500 digital camera at a fixed distance (20 cm perpendicular to the animal) under standard room lighting with autoflash and macro settings engaged and uploaded for image analysis of tissue survival with a standard software program (Image-Pro Plus, Media Cybernetics, Inc., Silver Spring, Md.). […]
Skin graft wound beds were assessed at indicated time points (72 hours or 7 days post-operatively) for visible alterations in vascularity under 5× magnification. […] Visible vessels without ramifications and branches were counted once. […]

With Biotin-IGWKGFTAYR [C6e] the “NO-stimulated adhesion to type I collagen” value [1] was “not blocked” and the “cGMP signaling IC50” value (NO/cGMP signaling) was “inactive”.
FIRVVMYEGKK [7N3] was tested, and the “NO-stimulated vascular cell outgrowth” value [2] was “inhibited vascular cell outgrowth”, the “concentration of maximal inhibition of NO-stimulated endothelial cell adhesion” value (HUVEC) was 10 µM and the “NO-stimulated endothelial cell adhesion on type I collagen” value (HUVEC; 1 h) was “inhibited NO-stimulated endothelial cell adhesion”. The “NO stimulated cGMP in platelets” value (human platelets [3]) was “partially inhibited”, the “NO-stimulated cGMP” value ([4]; CD36 null MASMC) was “completely inhibited” and the “NO-stimulated cGMP” value ([4]; CD47 null MASMC) was “did not significantly inhibit”. For the same compound, the “concentration sufficient to significantly inhibit the NO delay” value (human platelets [5]) was 10 nM and the “NO delay of thrombin-induced platelet aggregation” value (human platelets [5]; thrombin 0.2 U/ml, DEA/NO 10 μM) was “blocked”.
`O=[N+]([O-])O[C@H]1CO[C@H]2[C@@H]1OC[C@H]2O[N+](=O)[O-]` [ISDN, Isosorbide dinitrate, reference compound] was tested, and the flap survival [6] was “did not dramatically alter flap survival” and the FTSG survival [7] was “not substantially altered”.
VTCGGGVQKRSRL [p245] was tested, and the “NO-stimulated vascular cell outgrowth” value [2] was “inhibited vascular cell outgrowth”.
For GAKDFTAYR [C6s], the “NO-stimulated adhesion to type I collagen” value [1] was “not blocked” and the “cGMP signaling IC50” value (NO/cGMP signaling) was “inactive”.
